Experimental data taken from ChEMBL document CHEMBL5523739, “NN1213 - A Potent, Long-Acting, and Selective Analog of Human Amylin” (J Med Chem, 2024).
≈ marks a conversion by molar mass, not a printed value. Calls of active or inactive are those of the source. The rule behind the calls is not given here.

Legend:
[1] = target: T1, Amylin receptor AMY3; CALCR/RAMP3 (Homo sapiens, UniProt O60896+P30988); test: Agonist activity at human AMY3R complex of CTR/RAMP3 expressed in Baby hamster kidney cells incubated for 3 hrs followed by medium replacement without compound measured after 30 mins by luciferase reporter assay; assay type: functional, cell-based, Baby hamster kidney cell
T1 sequence (P30988 whole entry): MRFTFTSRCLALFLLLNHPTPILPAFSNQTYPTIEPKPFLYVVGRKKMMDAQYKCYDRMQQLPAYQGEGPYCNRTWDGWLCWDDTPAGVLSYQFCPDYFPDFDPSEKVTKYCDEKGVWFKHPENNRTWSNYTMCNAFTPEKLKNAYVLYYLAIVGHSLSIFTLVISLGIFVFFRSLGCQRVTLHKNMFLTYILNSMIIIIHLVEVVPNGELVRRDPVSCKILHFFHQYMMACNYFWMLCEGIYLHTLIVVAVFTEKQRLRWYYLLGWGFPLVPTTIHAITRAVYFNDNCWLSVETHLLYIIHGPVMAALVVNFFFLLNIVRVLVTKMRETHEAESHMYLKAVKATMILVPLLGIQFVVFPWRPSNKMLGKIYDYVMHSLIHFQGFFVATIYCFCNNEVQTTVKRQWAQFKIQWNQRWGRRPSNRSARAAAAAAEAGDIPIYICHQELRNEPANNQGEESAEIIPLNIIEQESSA
T1 sequence (O60896 whole entry): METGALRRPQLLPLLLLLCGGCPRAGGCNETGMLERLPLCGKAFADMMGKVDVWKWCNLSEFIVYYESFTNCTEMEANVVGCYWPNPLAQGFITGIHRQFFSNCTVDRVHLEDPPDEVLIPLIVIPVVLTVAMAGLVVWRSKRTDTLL

[2] = target: T1, Amylin receptor AMY3; CALCR/RAMP3; test: Displacement of 125I-rat amylin from human AMY3R complex of CTR/RAMP3 expressed in Baby hamster kidney cell membrane incubated for 120 mins by SPA method; assay type: cell membranes
[3] = target: T2, Amylin receptor AMY3; CALCR/RAMP3 (Rattus norvegicus, UniProt P32214+Q9JJ73); test: Displacement of 125I-rat amylin from rat AMY3R complex of CTR/RAMP3 expressed in Baby hamster kidney cell membrane incubated for 120 mins by SPA method; assay type: cell membranes
T2 sequence (P32214 whole entry): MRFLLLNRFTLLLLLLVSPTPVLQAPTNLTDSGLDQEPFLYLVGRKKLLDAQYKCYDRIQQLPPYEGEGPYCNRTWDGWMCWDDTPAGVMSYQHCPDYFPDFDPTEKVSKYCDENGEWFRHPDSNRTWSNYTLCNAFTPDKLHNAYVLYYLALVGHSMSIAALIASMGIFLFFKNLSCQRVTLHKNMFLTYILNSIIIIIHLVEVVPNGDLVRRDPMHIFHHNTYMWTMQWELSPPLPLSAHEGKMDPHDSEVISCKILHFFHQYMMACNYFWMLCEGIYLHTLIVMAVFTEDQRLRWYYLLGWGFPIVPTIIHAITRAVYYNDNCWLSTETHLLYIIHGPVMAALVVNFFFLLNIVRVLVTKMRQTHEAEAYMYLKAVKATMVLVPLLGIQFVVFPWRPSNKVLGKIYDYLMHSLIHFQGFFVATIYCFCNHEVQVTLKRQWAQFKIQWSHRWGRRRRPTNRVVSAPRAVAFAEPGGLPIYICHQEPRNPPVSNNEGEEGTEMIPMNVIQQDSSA
T2 sequence (Q9JJ73 whole entry): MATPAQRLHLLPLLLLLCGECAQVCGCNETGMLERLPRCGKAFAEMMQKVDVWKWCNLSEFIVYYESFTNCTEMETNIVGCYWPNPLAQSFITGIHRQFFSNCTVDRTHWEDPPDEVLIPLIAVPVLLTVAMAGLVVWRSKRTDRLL

Calcitonin receptor = target: T3, Calcitonin receptor (Rattus norvegicus, UniProt P32214); test: Displacement of 125I-Calcitonin from rat CTR expressed in Baby hamster kidney cell membrane incubated for 120 mins by SPA method; assay type: cell membranes
T3 sequence (P32214 whole entry): T2 sequence (P32214 whole entry)

[4] = Solubility of compound at pH 5 incubated overnight by UPLC analysis; assay type: physicochemical; details: buffer
[5] = Solubility of compound at pH 6 incubated overnight by UPLC analysis; assay type: physicochemical; details: buffer
[6] = Solubility of compound at pH 7 incubated overnight by UPLC analysis; assay type: physicochemical; details: buffer
[7] = Stability against amyloid fibril formation at pH 7.5 assessed as lag time at 1 uM measured after 45 hrs by ThT assay; assay type: physicochemical; details: pH 7.5, 45 h
[8] = Stability against amyloid fibril formation at pH 7.5 assessed as compound recovery at 1 uM measured after 45 hrs by ThT assay; assay type: physicochemical; details: pH 7.5, 45 h
Rattus norvegicus [9] = test: Appetite suppressing activity in rat assessed as reduction in food intake at 30 nmol/kg, sc measured for 24 to 48 hrs relative to control; assay type: functional; design: scale not given: the % may be the effect or the level left; details: time 24-48 hrs
[10] = target: Amylin receptor AMY1, CALCR/RAMP1 (Homo sapiens, UniProt O60894+P30988); test: Agonist activity at human AMY1R complex of CTR/RAMP1 transduced in human HeLa cells by cAMP assay; assay type: functional, cell-based
[11] = target: Amylin receptor AMY2; CALCR/RAMP2 (Homo sapiens, UniProt O60895+P30988); test: Agonist activity at human AMY2R complex of CTR/RAMP2 transduced in human HeLa cells by cAMP assay; assay type: functional, cell-based
[12] = […] bioavailability in rat at 2.5 nmol/kg, sc; assay type: ADME, organism-based; details: in vivo
[13] = Terminal half life in Gottingen minipig at 4.8 nmol/kg, iv; assay type: ADME, Sus scrofa; details: pig, in vivo, read-out: beta t1/2 (converted)
[14] = Terminal half life in Beagle dog at 6 nmol/kg, iv; assay type: ADME, Canis lupus familiaris; details: in vivo, read-out: beta t1/2 (converted)
Rattus norvegicus [15] = test: Appetite suppressing activity in rat assessed as reduction in food intake at 100 nmol/kg, sc measured for 48 hrs relative to control; assay type: functional; design: scale not given: the % may be the effect or the level left
Canis familiaris = test: Appetite suppressing activity in dog assessed as reduction in food intake administered subcutaneously measured for 48 hrs; assay type: functional, organism-based; details: Canis lupus familiaris, dose 3-300 nmol/kg, route sc
Rattus norvegicus [16] = test: Appetite suppressing activity in HFD-fed DIO rat model assessed as reduction in food intake at 0.7 nmol/kg, sc qd measured for 21 days relative to control; assay type: functional; design: scale not given: the % may be the effect or the level left; details: time 21 day
Rattus norvegicus [17] = test: Appetite suppressing activity in HFD-fed DIO rat model assessed as reduction in body weight at 2.2 to 22 nmol/kg, sc qd measured for 21 days relative to control; assay type: functional; design: scale not given: the % may be the effect or the level left; details: dose 2.2-22 nmol/kg, time 21 day
Rattus norvegicus [18] = test: Appetite suppressing activity in HFD-fed DIO rat model assessed as reduction in food intake at 0.7 to 22 nmol/kg, sc qd measured after 15 days; assay type: functional, organism-based; details: dose 0.7-22 nmol/kg, time 15.0 day
Rattus norvegicus [19] = test: Appetite suppressing activity in HFD-fed DIO rat model assessed as reduction in body weight administered subcutaneously once daily measured for 21 days; assay type: functional, organism-based; details: dose 0.7-22 nmol/kg, route sc, time 21.0 day
Rattus norvegicus [20] = test: Effect on lean mass of HFD-fed DIO rat model at 0.7 to 22 nmol/kg, sc qd measured after 21 days; assay type: functional, organism-based; details: dose 0.7-22 nmol/kg, time 21.0 day

Chain of Amylin receptor AMY2; CALCR/RAMP2 (O60895 whole entry, one chain of several): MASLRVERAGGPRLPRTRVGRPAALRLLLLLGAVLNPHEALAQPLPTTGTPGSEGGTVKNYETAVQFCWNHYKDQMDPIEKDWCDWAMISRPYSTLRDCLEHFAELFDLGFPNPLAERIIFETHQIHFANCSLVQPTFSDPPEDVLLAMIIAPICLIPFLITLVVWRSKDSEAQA
Chain of Amylin receptor AMY1, CALCR/RAMP1 (O60894 whole entry, one chain of several): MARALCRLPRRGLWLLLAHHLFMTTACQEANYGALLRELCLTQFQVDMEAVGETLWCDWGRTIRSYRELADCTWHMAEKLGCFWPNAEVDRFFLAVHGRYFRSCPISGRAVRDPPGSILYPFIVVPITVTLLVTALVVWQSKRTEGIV

- EC50 [1]: 0.177 nM
- IC50 [2]: 0.561 nM
- IC50 [3]: 0.29 nM
- IC50 (Calcitonin receptor): 135 nM
- solubility [4]: ≥ 200 µM
- solubility [5]: ≥ 200 µM
- solubility [6]: 155 µM (≈ 615 µg/mL)
- Time [7]: 42 h
- Drug recovery [8]: 96%
- EC50 [10]: 0.0575 nM
- EC50 [11]: 0.182 nM
- bioavailability [12]: ~40%
- half-life [13]: ~115 h
- half-life [14]: ~76 h
SMILES: CC[C@H](C)[C@H](NC(=O)[C@H](C)NC(=O)CNC(=O)[C@H](Cc1ccccc1)NC(=O)[C@H](CC(N)=O)NC(=O)[C@@H]1CCCN1C(=O)[C@H](CO)NC(=O)[C@H](CO)NC(=O)[C@H](Cc1c[nH]cn1)NC(=O)[C@H](CCCNC(=N)N)NC(=O)[C@H](CC(C)C)NC(=O)[C@H](Cc1ccccc1)NC(=O)[C@H](CC(=O)O)NC(=O)[C@H](C)NC(=O)[C@H](CC(C)C)NC(=O)[C@H](CCCNC(=N)N)NC(=O)[C@H](CCC(N)=O)NC(=O)[C@@H](NC(=O)[C@H](C)NC(=O)[C@@H]1CSSC[C@H](NC(=O)[C@@H](N)CCCCN)C(=O)N[C@@H](CC(N)=O)C(=O)N[C@@H]([C@@H](C)O)C(=O)N[C@@H](C)C(=O)N[C@@H]([C@@H](C)O)C(=O)N1)[C@@H](C)O)C(=O)N1CCC[C@H]1C(=O)N[C@@H](CO)C(=O)N[C@@H](CO)C(=O)N[C@H](C(=O)N[C@@H](CC(N)=O)C(=O)N[C@H](C(=O)NCC(=O)N[C@@H](CO)C(=O)N[C@@H](CCCNC(=N)N)C(=O)N[C@H](C(=O)N[C@@H](Cc1ccc(O)cc1)C(N)=O)[C@@H](C)O)C(C)C)[C@@H](C)O
- Activity (Rattus norvegicus [9]): 50%
- Activity (Rattus norvegicus [15]): 70%
- Activity (Canis familiaris): Dose-Dependent Effect
- Activity (Rattus norvegicus [16]): 4.7%
- Activity (Rattus norvegicus [17]): 8.7%
- Activity (Rattus norvegicus [18]): inactive
- Activity (Rattus norvegicus [19]): Dose-Dependent Effect
- Activity (Rattus norvegicus [20]): inactive
